Experimental data taken from ChEMBL document CHEMBL4364269, “Identification of a novel orally bioavailable ERK5 inhibitor with selectivity over p38α and BRD4” (Eur J Med Chem, 2019).
pIC50, pKd: −log10 of the molar value.

What was measured:
[1] = molecular target: Mitogen-activated protein kinase 14 (Homo sapiens, UniProt Q16539); test: Inhibition of recombinant N-terminal GST-tagged full length human p38alpha expressed in Escherichia coli cells assessed as substrate phosphorylation using Ulight-MBP peptide as substrate incubated for 1 hr by LANCE assay
[2] = molecular target: T1, Mitogen-activated protein kinase 7 (Homo sapiens, UniProt Q13164); test: Inhibition of HA-tagged ERK5 (unknown origin) coexpressed with mutationally activated EGFP-MEK5D and Gal4-MEF2D in HEK293 cells assessed as reduction in MEF2 transcription by measuring luciferase signal after 20 hrs by luciferase reporter gene assay; assay type: cell-based
[3] = molecular target: T1, Mitogen-activated protein kinase 7; test: Inhibition of recombinant N-terminal His-tagged human ERK5 (2 to 409 residues) co-expressed with GST-tagged human truncated MEK5DD lacking N-terminal 11 residues (13 to 448 residues) in Sf9 insect cells assessed as substrate peptide phosphorylation using (LVEPLTPSGEAPNQ(K-5FAM)-COOH as substrate incubated for 2 hrs by IMAP fluorescence polarisation assay
[4] = test system: A2780; test: Antitumor activity against human A2780 cells xenografted in CD1 mouse assessed as reduction in tumor volume at 50 mg/kg, ip administered bid for 10 days started on day 7 post-tumor inoculation and measured three times per week by digital caliper analysis; assay type: functional
[5] = molecular target: Bromodomain-containing protein 4 (Homo sapiens, UniProt O60885); test: Inhibition of BRD4 (unknown origin)
[6] = Toxicity in CD1 mouse xenografted with human A2780 cells assessed as body weight at 50 mg/kg, ip administered bid for 10 days (reference value: 96%); assay type: organism-based; conditions: in vivo, 240 h
[7] = molecular target: Cytochrome P450 2D6 (Homo sapiens, UniProt P10635); test: Inhibition of CYP2D6 (unknown origin); assay type: ADME
[8] = Cmax in CD1 mouse at 10 mg/kg, iv measured upto 24 hrs by LCMS analysis; assay type: ADME, organism-based; set-up: dose 10 mg/kg, route intravenous; conditions: in vivo
[9] = molecular target: Cytochrome P450 3A4 (Homo sapiens, UniProt P08684); test: Inhibition of CYP3A4 (unknown origin); assay type: ADME
[10] = molecular target: Cytochrome P450 2C9 (Homo sapiens, UniProt P11712); test: Inhibition of CYP2C9 (unknown origin); assay type: ADME
[11] = Stability in mouse liver microsomes assessed as intrinsic clearance per mg protein; assay type: ADME, Microsome; conditions: read-out: CLH
[12] = Tmax in CD1 mouse at 10 mg/kg, po measured upto 24 hrs by LCMS analysis; assay type: ADME, organism-based; conditions: in vivo
[13] = AUC in CD1 mouse at 10 mg/kg, iv measured upto 24 hrs by LCMS analysis; assay type: ADME, organism-based; set-up: time < 24 hr, dose 10 mg/kg, route intravenous; conditions: in vivo
[14] = Oral bioavailability in CD1 mouse at 10 mg/kg measured upto 24 hrs by LCMS analysis; assay type: ADME, organism-based; conditions: in vivo
[15] = Volume of distribution in CD1 mouse at 10 mg/kg, iv measured upto 24 hrs by LCMS analysis; assay type: ADME, organism-based; conditions: in vivo
[16] = Stability in human liver microsomes assessed as intrinsic clearance per mg protein; assay type: ADME, Microsome; conditions: read-out: CLH
[17] = AUC in CD1 mouse at 10 mg/kg, po measured upto 24 hrs by LCMS analysis; assay type: ADME, organism-based; set-up: dose 10 mg/kg, time < 24 hr, route oral; conditions: in vivo
[18] = molecular target: Cytochrome P450 2C19 (Homo sapiens, UniProt P33261); test: Inhibition of CYP2C19 (unknown origin); assay type: ADME
[19] = Toxicity in CD1 mouse xenografted with human A2780 cells assessed as body weight at 100 mg/kg, po administered bid for 10 days (reference value: 96%); assay type: organism-based; conditions: in vivo, 240 h
[20] = Clearance in CD1 mouse at 10 mg/kg, iv measured upto 24 hrs by LCMS analysis; assay type: ADME, organism-based; conditions: in vivo
[21] = Half life in CD1 mouse at 10 mg/kg, iv measured upto 24 hrs by LCMS analysis; assay type: ADME, organism-based; conditions: in vivo
[22] = Cmax in CD1 mouse at 10 mg/kg, po measured upto 24 hrs by LCMS analysis; assay type: ADME, organism-based; set-up: dose 10 mg/kg, route oral; conditions: in vivo
[23] = Permeability across basolateral to apical side in human Caco2 cells; assay type: ADME, cell-based; conditions: Caco-2, read-out: permeability
[24] = test system: A2780; test: Antitumor activity against human A2780 cells xenografted in CD1 mouse assessed as reduction in tumor volume at 100 mg/kg, po administered bid for 10 days started on day 7 post-tumor inoculation and measured three times per week by digital caliper analysis; assay type: functional
[25] = Solubility of compound by turbidometry; assay type: physicochemical
[26] = test system: PC-3; test: Growth inhibition of human PC3 cells; assay type: functional
[27] = Fraction unbound in plasma (unknown origin); assay type: ADME, cell-free
[28] = molecular target: T1, Mitogen-activated protein kinase 7; test: Inhibition of ERK5 (unknown origin) using R7129 as substrate incubated for 2 hrs by IMAP fluorescence polarization analysis

Mitogen-activated protein kinase 14, sequence (Q16539 whole entry, the tested form may be a part): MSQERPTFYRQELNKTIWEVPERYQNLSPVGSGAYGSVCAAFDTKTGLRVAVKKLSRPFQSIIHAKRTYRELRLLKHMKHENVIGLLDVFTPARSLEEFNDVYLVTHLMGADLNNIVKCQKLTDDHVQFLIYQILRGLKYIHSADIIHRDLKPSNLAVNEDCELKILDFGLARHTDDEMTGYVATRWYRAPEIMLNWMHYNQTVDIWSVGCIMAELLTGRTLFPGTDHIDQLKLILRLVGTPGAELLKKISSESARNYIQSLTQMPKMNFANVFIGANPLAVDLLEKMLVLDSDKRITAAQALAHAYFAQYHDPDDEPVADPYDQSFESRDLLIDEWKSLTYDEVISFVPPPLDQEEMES
T1 sequence (Q13164 whole entry, the tested form may be a part): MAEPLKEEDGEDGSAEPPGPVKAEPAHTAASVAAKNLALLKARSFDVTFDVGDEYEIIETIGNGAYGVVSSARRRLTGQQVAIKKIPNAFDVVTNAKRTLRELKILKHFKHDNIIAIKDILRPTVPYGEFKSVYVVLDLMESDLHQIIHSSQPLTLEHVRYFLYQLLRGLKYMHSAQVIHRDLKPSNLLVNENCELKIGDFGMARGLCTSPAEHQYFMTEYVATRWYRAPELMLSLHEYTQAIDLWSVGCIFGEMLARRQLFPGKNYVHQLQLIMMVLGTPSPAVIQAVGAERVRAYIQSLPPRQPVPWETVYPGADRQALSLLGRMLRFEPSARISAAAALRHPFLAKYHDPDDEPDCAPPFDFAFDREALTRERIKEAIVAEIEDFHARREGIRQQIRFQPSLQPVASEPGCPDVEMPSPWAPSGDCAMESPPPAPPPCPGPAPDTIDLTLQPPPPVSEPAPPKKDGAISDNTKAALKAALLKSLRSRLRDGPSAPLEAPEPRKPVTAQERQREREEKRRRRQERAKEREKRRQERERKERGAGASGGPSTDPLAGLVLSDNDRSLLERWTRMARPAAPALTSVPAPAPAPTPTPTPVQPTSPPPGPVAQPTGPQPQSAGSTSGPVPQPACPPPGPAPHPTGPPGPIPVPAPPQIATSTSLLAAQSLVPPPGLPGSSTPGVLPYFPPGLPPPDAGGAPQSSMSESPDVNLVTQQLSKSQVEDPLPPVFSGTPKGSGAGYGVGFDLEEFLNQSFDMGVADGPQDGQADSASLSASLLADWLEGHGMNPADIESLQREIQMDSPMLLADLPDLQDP
Cytochrome P450 2D6, sequence (P10635 whole entry): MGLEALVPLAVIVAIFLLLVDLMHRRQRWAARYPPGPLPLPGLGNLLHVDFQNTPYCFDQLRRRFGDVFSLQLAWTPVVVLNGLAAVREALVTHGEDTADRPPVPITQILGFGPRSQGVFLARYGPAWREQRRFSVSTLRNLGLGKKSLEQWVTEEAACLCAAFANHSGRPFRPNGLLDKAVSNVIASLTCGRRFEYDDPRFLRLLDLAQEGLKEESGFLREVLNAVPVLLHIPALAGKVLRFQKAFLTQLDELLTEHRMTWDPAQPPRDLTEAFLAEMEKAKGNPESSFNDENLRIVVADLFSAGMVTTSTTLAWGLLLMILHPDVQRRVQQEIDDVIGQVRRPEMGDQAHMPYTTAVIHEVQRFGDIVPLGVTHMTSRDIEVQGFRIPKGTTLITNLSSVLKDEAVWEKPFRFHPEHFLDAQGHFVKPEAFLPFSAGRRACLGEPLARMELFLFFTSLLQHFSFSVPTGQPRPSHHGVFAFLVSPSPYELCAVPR
Cytochrome P450 2C9, sequence (P11712 whole entry): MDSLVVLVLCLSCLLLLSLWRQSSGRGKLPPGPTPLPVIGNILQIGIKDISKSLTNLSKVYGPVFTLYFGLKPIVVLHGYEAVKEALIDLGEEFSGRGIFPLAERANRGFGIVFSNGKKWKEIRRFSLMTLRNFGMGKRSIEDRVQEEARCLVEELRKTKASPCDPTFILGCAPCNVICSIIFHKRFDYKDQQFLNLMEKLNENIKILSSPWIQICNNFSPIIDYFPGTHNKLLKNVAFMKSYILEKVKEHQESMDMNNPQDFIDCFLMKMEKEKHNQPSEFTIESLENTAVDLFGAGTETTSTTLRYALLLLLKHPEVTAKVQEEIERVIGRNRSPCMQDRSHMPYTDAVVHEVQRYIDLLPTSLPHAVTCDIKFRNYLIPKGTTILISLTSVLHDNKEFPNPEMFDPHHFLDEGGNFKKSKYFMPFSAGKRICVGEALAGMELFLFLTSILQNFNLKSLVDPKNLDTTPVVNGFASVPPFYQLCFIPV
Cytochrome P450 2C19, sequence (P33261 whole entry): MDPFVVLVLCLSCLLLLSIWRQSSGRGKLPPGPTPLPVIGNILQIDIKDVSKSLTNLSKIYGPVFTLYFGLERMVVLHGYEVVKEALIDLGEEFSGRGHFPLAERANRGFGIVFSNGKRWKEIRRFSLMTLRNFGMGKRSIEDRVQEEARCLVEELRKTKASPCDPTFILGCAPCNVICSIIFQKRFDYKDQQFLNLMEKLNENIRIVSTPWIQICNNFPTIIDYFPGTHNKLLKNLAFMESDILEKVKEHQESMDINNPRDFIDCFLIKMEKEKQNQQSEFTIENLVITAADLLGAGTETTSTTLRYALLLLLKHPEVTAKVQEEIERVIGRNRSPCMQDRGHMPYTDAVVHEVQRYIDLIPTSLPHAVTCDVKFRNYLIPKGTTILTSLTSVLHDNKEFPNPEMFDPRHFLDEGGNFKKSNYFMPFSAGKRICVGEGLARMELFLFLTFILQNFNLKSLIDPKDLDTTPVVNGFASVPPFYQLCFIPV
Cytochrome P450 3A4, sequence (P08684 whole entry): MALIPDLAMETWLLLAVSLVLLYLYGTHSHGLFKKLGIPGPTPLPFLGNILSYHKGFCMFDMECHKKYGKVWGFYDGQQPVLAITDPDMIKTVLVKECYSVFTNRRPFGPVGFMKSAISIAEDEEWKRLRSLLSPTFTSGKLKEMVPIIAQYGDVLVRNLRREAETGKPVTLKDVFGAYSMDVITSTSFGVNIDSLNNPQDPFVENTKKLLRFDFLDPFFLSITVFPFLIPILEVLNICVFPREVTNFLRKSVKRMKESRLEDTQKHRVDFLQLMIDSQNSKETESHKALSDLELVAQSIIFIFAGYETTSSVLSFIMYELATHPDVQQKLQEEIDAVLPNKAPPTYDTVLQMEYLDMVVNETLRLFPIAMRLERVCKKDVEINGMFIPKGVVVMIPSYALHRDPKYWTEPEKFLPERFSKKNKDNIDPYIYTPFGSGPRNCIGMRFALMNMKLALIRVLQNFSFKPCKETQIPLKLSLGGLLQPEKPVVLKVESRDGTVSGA

Compound `O=C(Nc1ccncc1)c1cc(C(=O)c2c(F)cccc2Cl)c[nH]1` has a pIC50 [1] of under 3.92 and a pIC50 [2] of 5.64.
With `O=C(NCc1ccncc1)c1cc(C(=O)c2c(F)cccc2F)c[nH]1` the pIC50 [1] was 6.24 and the pIC50 [3] was 4.52.
`O=C(c1ccc(F)cc1)c1c[nH]c(C(=O)NCc2ccncc2)c1` gave a pIC50 [3] of under 3.92.
`O=C(NCc1ccncc1)c1cc(C(=O)c2cccc(F)c2F)c[nH]1` gave a pIC50 [1] of 5.62 and a pIC50 [3] of 5.15.
`O=C(Nc1cccnc1)c1cc(C(=O)c2c(F)cccc2F)c[nH]1` showed a pIC50 [1] of 4.46 and a pIC50 [3] of 5.96.
`CCOc1cc(N2CCC(O)CC2)ccc1Nc1ncc2c(n1)N(C)c1ccccc1C(=O)N2C` showed an inhibition in vivo at 50 mg/kg [4] of 62%, a pKd [5] of 5.80 and an Activity [6] of 98%.
For `O=C(c1cccc(F)c1)c1c[nH]c(C(=O)NCc2ccncc2)c1`, the pIC50 [3] was under 3.92.
Compound `O=C(Nc1cccnc1)c1cc(C(=O)c2c(F)cccc2Br)c[nH]1` has a pIC50 [7] of under 5.30, a Cmax [8] of 25 µM and a pIC50 [9] of under 5.30. For the same compound, the pIC50 [10] was under 5.30, the microsomal CLint [11] was 26 µL/min/mg and the Tmax [12] was 15 min. For the same compound, the AUC at 24 h [13] was 6200 ng·h/mL, the bioavailability [14] was 68% and the Vd [15] was 1.2 L/kg. For the same compound, the microsomal CLint [16] was under 5 µL/min/mg, the AUC at 24 h [17] was 4230 ng·h/mL and the pIC50 [18] was under 5.30. It also gave a pIC50 [1] of under 3.92, an Activity [19] of 99% and a clearance [20] of 27 mL/min/kg. The half-life [21] was 38 min, the Cmax [22] was 6 µM and the Papp B→A [23] was over 10 ×10⁻⁶ cm/s. The inhibition in vivo at 100 mg/kg [24] was 57%, the solubility kinetic [25] was over 100 µM and the GI50 [26] was 44 µM. It also gave a fraction unbound [27] of 0.06.
`O=C(c1ccccc1)c1c[nH]c(C(=O)NCc2ccncc2)c1` gave a pIC50 [3] of 4.40.
For `O=C(Nc1ccncc1)c1cc(C(=O)c2c(F)cccc2F)c[nH]1`, the pIC50 [1] was 4.00 and the pIC50 [2] was 5.10.
`O=C(c1cccc(Cl)c1)c1c[nH]c(C(=O)NCc2ccncc2)c1` showed a pIC50 [1] of 5.19 and a pIC50 [3] of 5.20.
Work on `O=C(NCc1ccncc1)c1cc(C(=O)c2ccccc2Cl)c[nH]1` yielded a pIC50 [3] of 4.82.
With `O=C(Nc1ccncc1)c1cc(C(=O)c2c(F)cccc2Br)c[nH]1` the pIC50 [1] was under 3.92, the pIC50 [2] was 5.40 and the pIC50 [3] was 6.15.
Compound `O=C(NCc1ccncc1)c1cc(C(=O)c2cccc(Cl)c2Cl)c[nH]1` has a pIC50 [28] of 5.70.
For `O=C(Nc1cccnc1)c1cc(C(=O)c2c(F)cccc2Cl)c[nH]1`, the pIC50 [1] was 4.03.
Compound `O=C(c1ccc(Cl)cc1)c1c[nH]c(C(=O)NCc2ccncc2)c1` has a pIC50 [3] of under 3.92.
For `O=C(NCc1ccncc1)c1cc(C(=O)c2c(Cl)cccc2Cl)c[nH]1`, the pIC50 [1] was 4.91 and the pIC50 [3] was 5.36.
For `O=C(NCc1ccncc1)c1cc(C(=O)c2ccccc2F)c[nH]1`, the pIC50 [1] was 6.44 and the pIC50 [3] was 5.23.
